Assay results: patent EP1463487B1, “LIPOSOMAL DELIVERY OF VITAMIN E BASED COMPOUNDS” (RESEARCH DEVELOPMENT FOUNDATION, priority 2001, dated 2003)
Entries after “also recorded” stand apart in the source; their conditions may differ.

Columns and labels:
[1] = system: 66 cl.4-GFP cells; assay: Apoptosis by morphological evaluation of DAPI-stained nuclei; assay type: cell-based, mouse; details: for apoptosis: three days
[2] = system: 66 cl.4-GFP cells; assay: Colony-forming assay; assay type: cell-based, mouse; details: 10 days
Experimental: 66 cl.4-GFP cells were seeded at 600 cells per 35 X 1 0 mm tissue culture plate (Nunclon, Rochester, NY) and allowed to adhere over night at 37° C. […] Treatments were left on the cells for 10 days without change of media. After 10 days, media were removed and plates were washed with PBS three times. Cells were stained for 30 min with 1% methylene blue in PBS and colonies > 0.5 mm manually counted.

[3] = system: MDA-MB-435 GFP FL cells; assay: Tumor growth of MDA-MB-435 GFP FL breast cancer cells in nude mice; assay type: in vivo, Nu/Nu athymic nude mice; details: liposome gavage, 8 mg compound per day, 2 times per day; day 27
Experimental: Animals were given a total of 8 mg compound per day. […] Alpha-TEA liposome gavage reduced tumor growth by 68, 75, 78, 79 and 79% on days 27, 29, 31, 33, and 35, respectively (Fig. 15).
Animals were gavaged 3ppm methylselenocysteine (MSC) in water, α-TEA in liposome via aerosol, or gavaged 10 mg/kg b.w. trans-resveratrol (t-RES) in first 1:1, EtOH: physiological saline, and starting at day 24, 6.5% EtOH and 93.5% Neobee oil. A combination group was treated with each of the above three compounds, and a control group was treated with aerosolized liposome, 100 µl water, and 50 µl of the t-Res solvent. Animals were treated seven days a week, for 35+ days.

[4] = system: 66 cl.4-GFP cells; assay: Fluorescent lymph node micrometastases of 66 cl.4-GFP tumors in Balb/c mice; assay type: in vivo
Description: (§1) Metastastic lesions in the five lung lobes were counted visually at time of sacrifice. Fluorescent green micro-metastatic cancer cell colonies in the left lung lobe and lymph nodes were counted using a Nikon fluorescence microscope (TE-200) with a 20 x objective (200 x magnification) and Image-Pro Plus (version 4.1; Media Cybernetics, Silver Spring, MD) software associated with the microscope. Fluorescent lesions were separated into three size grouping: <5 µm , 5-10 µm and >10 µm.
(§2) At sacrifice, the left lung lobe of each mouse of flash frozen and saves for detection of GFP expressing micrometatstic lesions via fluorescent microscopy.

[5] = system: 66 cl.4-GFP cells; assay: Visible lung metastases of 66 cl.4-GFP tumors in Balb/c mice; assay type: in vivo; details: daily aerosol for 17 days; counted visually at sacrifice
Description: as §1

[6] = system: 66 cl.4-GFP tumors; assay: TUNEL assay for apoptosis in tumor sections in vivo; parameters: species or system Balb/c mice
Description: Deparaffinized sections (5 µm) of tumor tissue were used to assess apoptosis using reagents supplied in the ApopTag In Situ Apoptosis Detection kit (Intergen, Purchase, NY) according to the manufacturer's instructions. Nuclei that stained brown were scored as positive for apoptosis and those that stained blue were scored as negative. At least sixteen 400X microscopic fields were scored per tumor. Data are presented as the mean ± S. E number of apoptotic cells counted in three separate tumors from each group. Pictures of tumor tissue were taken at 1000X magnification.

[7] = Body weight and long term safety of α-TEA treated mice; assay type: in vivo, Balb/c mice
Experimental: 50 mice were assigned (10 per group) to aerosol treatment, aerosol control, oral treatment, oral control, or to the no treatment group so that the average tumor volume for all groups were closely matched. […] Tumors were measured using calipers every other day, and volumes were calculated using the formula: volume (mm^3) = [width (mm)^2 X length (mm)] /2. Body weights were determined weekly.
Balb/c mice, 10/group (4 groups, 40 mice total) are inoculated with 200,000 66 cl.4 GFP cells as described on day 0. Nine days after tumor inoculation, treatments groups are initiated: Aerosol Treatment (TX) = aerosol delivery of α-TEA liposome (5 mg/mouse)/daily through day 23. Aerosol Control = Aerosol delivery of liposome composition only daily through day 23. Gavage treatment = gavage administration of α-TEA at 5 mg/mouse in ethanol/peanut oil daily through day 23. Gavage control = gavage administration of ethanol/peanut oil only through day 23. Mice were weighed at the initiation of treatment (day 9) and thereafter on days 13, 16, 20, and 23 (Fig. 6). Data are presented as the mean +/- standard deviation.

[8] = system: 66 cl.4-GFP cells; assay: Fluorescent lung micrometastases of 66 cl.4-GFP tumors in Balb/c mice; assay type: in vivo; details: for Inhibition (%) Lung Metastases: Liposomal; for numbers of micrometastases (± S. E.): α-TEA EtOH/peanut oil by gavage 5 mg/day
Description: as §1, §2

[9] = Serum and tissue levels of α-TEA after liposomal aerosol treatment (HPLC); assay type: in vivo, balb/c mice; details: aerosol 5 mg/mouse over 30 minutes
Experimental: Tumors were removed during necropsy and half of each tumor was quick frozen in liquid nitrogen then stored at -70°C until HPLC analyses were performed. Tumors were processed for HPLC analyses by homogenization and hexane extraction of lipids. Briefly, weighed tumors were placed in 5 ml disposable conical-bottom tubes (Sarstedt, Newton, NC) along with 5-7 Kimble solid glass beads (4mm), 1 ml 1% SDS in water, 1-2 ml 100% ethanol and 1 ml hexane. Samples were then mixed using a Crescent Wig-L-Bug (model 3110B Densply International, Elgin, IL) twice for 1 min each. Samples were then centrifuged for 5 min at 1,000 rpm, and the organic layer collected, the aqueous layer was mixed with hexane again, vortexed, centrifuged, and processed twice more before the organic layer was dried down under nitrogen. Samples were run immediately. Reverse phase HPLC analyses with fluorometric detection of the tocopherol ether analog were conducted as described by Tirmenstein, M.A., et al. (23).
Eight mice are treated via pulmonary aerosol delivery with 40mg of α-TEA (5 mg/mouse) in 6 ml liposomes. The mice inhaled the aerosol over a period of 30 minutes until delivery was complete. Mice are sacrificed 0, 2, 6, or 24 hours after the treatment ended. Serum and tissue levels of α-TEA are determined by HPLC analyses (Fig. 7).

[10] = Aerosol, in nebulizer per mouse: α-TEA 5 mg/d, 9NC 2 µg/d, combination 5 mg+2µg/d

SMILES: Cc1c(C)c2c(c(C)c1OCC(=O)O)CC[C@@](C)(CCC[C@H](C)CCC[C@H](C)CCCC(C)C)O2 [α-TEA, 2,5,7,8-tetramethyl-(2R-(4R,8R,12-trimethyltridecyl)chroman-6-yloxy) acetic acid]
- apoptosis ([1]; 2.5 µg/ml): 5%
- apoptosis ([1]; 5 µg/ml): 6%
- apoptosis (time course) ([1]; 10 µg/ml, 2 days): 20%
- apoptosis (time course) ([1]; 10 µg/ml, 3 days): 35%
- apoptosis (time course) ([1]; 10 µg/ml, 4 days): 47%
- apoptosis (time course) ([1]; 10 µg/ml, 5 days): 58%
- apoptosis ([1]; 10 µg/ml): 34%
- apoptosis ([1]; 20 µg/ml): 50%
- colonies (average ± S. D.) ([2]; 1.25 µg/ml): 98 ± 20 colonies
- colonies (average ± S. D.) ([2]; 2.5 µg/ml): 21 ± 6 colonies
- colonies ([2]; 5 µg/ml): No colonies formed
- colonies ([2]; 10 µg/ml): No colonies formed
- inhibition at 1.25 µg/mL ([2]; Mus musculus, 240 h, 1.25 µg/ml, compared to EtOH control, read-out: decreased colony formation): 30%
- inhibition at 2.5 µg/mL ([2]; Mus musculus, 240 h, 2.5 µg/ml, compared to EtOH control, read-out: decreased colony formation): 85%
- inhibition at 5 µg/mL ([2]; Mus musculus, 240 h, 5 µg/ml, compared to EtOH control, read-out: decreased colony formation): 100%
- reduced tumor growth [3]: 68%
- Inhibition (%) Metastases Lymphnode [4, 10]: 94%
- Inhibition (%) Metastases Lymphnode ([4]; Liposomal, Aerosol, 5 mg/d): 94%
- Inhibition (%) Metastases Lymphnode ([4]; Liposomal, Gavage, 3 mg/2Xd): 56%
- average micrometastatic lesions in lymph nodes ([4]; liposome via gavage, 6 mg compound per day, 21 days): 3.1 ±0.8
- No. Visible Lung Tumor Foci/Animal [5]: No visible tumors were seen
- apoptotic cells/field (mean ± S. E.) ([6]; liposomal α-TEA/aerosol treatment, three tumors): 2.04±0.23 apoptotic cells/field
- mean apoptotic values (TUNEL) increased ([6]; transplantable syngeneic mouse mammary cancer model, in comparison to controls): 30%
- long term adverse effects ([7]; non-tumor bearing mice treated by aerosol or gavage for 17 days, kept eleven months): did not show any adverse effects
- body weight ([7]; tumor bearing mice, α-TEA liposome aerosol or gavage in ethanol/peanut oil, 5 mg/mouse daily, versus controls): no significant weight differences; also recorded: No differences in mean body weights
- Inhibition (%) Metastases Lung [8, 10]: 71%
- Inhibition (%) Lung Metastases (number of lung tumor micrometastases reduced) ([8]; EtOH/P Oil, Gavage, 5 mg/d): 62%
- Inhibition (%) Lung Metastases ([8]; Aerosol, 5 mg/d, in comparison to aerosol control): 81%
- Inhibition (%) Lung Metastases ([8]; Gavage, 3 mg/2Xd): 59%
- micrometatstatic lung lesions ([8]; liposomal formulation via gavage, 6 mg compound per day, 21 days, left lung lobe): 21.5 /lung
- mean number of micrometastases (± S. E.) ([8]; liposomal α-TEA/aerosol, left lung lobe, N= 8): 11.4 ± 3.5
- numbers of micrometastases (± S. E.) ([8]; size 5-10 µm): 11.3± 1.8
- numbers of micrometastases (± S. E.) ([8]; size < 5 µm): 6.8±1.5
- numbers of micrometastases (± S. E.) ([8]; size >10 µm): 3.1±1.2
- serum and tissue levels of α-TEA ([9]; 0 hours after treatment ended): found only in the stomach tissue
- serum and tissue levels of α-TEA ([9]; 2 hours after treatment ended): present in the serum and stomach
- serum and tissue levels of α-TEA ([9]; 6 hours after treatment ended): present in the liver and stomach
- serum and tissue levels of α-TEA ([9]; 24 hours after treatment ended): present in the liver and stomach
